Data as given in the supplement of paper PMC10307832.

What was measured:
Assay in all cases: relative viability (nuclei count vs DMSO), 5 days (fraction); higher = more cells survive
[1] = compound: CC(C)(C)c1nc(-c2cccc(NS(=O)(=O)c3c(F)cccc3F)c2F)c(-c2ccnc(N)n2)s1 [Dabrafenib] + CC1(C)CCC(c2ccc(Cl)cc2)=C(CN2CCN(c3ccc(C(=O)NS(=O)(=O)c4ccc(N[C@H](CCN5CCOCC5)CSc5ccccc5)c(S(=O)(=O)C(F)(F)F)c4)cc3)CC2)C1 [Navitoclax] (partner 0.5 µM)
How it was run: (§1)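 Nuclei were stained with Hoechst during a one-step fixation (final 0.05% Triton X-100, 1% formaldehyde, 1 ug/ml Hoechst) carried out 5 days after dosing, then counted on 4× images. The cells, lung cancer lines in 1536-well plates, had been dosed by pin tool the day after seeding with one drug alone or a fixed anchor-drug dose plus five library-drug doses (not always all listed) in √10 steps. Relative viability is the nuclei count in treated wells divided by that in vehicle wells, and each value is the median of duplicate plates.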

[2] = compound: NC(=O)c1ccc(N(C(N)=O)c2c(F)cccc2F)nc1-c1ccc(F)cc1F [VX-702] + N=C(N)NC(=N)NCCc1ccccc1 [Phenformin] (partner 250 µM)
How it was run: as §1

[3] = compound: CC(C)(C)c1nc(-c2cccc(NS(=O)(=O)c3c(F)cccc3F)c2F)c(-c2ccnc(N)n2)s1 [Dabrafenib] + Nc1nc2[nH]cc(CCc3ccc(C(=O)N[C@@H](CCC(=O)O)C(=O)O)cc3)c2c(=O)[nH]1 [Pemetrexed] (partner 0.2 µM)
How it was run: as §1

[4] = compound: CC(C)(C)c1nc(-c2cccc(NS(=O)(=O)c3c(F)cccc3F)c2F)c(-c2ccnc(N)n2)s1 [Dabrafenib] + CC(C)C[C@H](NC(=O)[C@H](Cc1ccccc1)NC(=O)c1cnccn1)B(O)O [Bortezomib] (partner 0.002 µM)
How it was run: as §1

Cell Line | relative viability ([1]; first compound 0.003 µM) | relative viability ([1]; first compound 0.009487 µM) | relative viability ([1]; first compound 0.03 µM) | relative viability ([1]; first compound 0.09487 µM) | relative viability ([1]; first compound 0.3 µM) | relative viability ([2]; first compound 0.02 µM) | relative viability ([2]; first compound 0.2 µM) | relative viability ([2]; first compound 0.6325 µM) | relative viability ([2]; first compound 2 µM) | relative viability ([3]; first compound 0.003 µM) | relative viability ([3]; first compound 0.009487 µM) | relative viability ([3]; first compound 0.03 µM) | relative viability ([3]; first compound 0.09487 µM) | relative viability ([3]; first compound 0.3 µM) | relative viability ([4]; first compound 0.003 µM) | relative viability ([4]; first compound 0.009487 µM) | relative viability ([4]; first compound 0.03 µM) | relative viability ([4]; first compound 0.09487 µM) | relative viability ([4]; first compound 0.3 µM)
UMC-11 | 0.295 | 0.369 | 0.315 | 0.356 | 0.332 | 0.34 | 0.346 | 0.301 | 0.363 | 0.761 | 0.806 | 0.727 | 0.822 | 0.871 | 1.05 | 0.637 | 0.647 | 0.681 | 0.735
PC-3 [JPC-3] | 0.85 | 0.829 | 0.822 | 0.781 | 0.788 | 0.484 | 0.491 | 0.457 | 0.464 |  | 1.24 | 1.12 | 1.05 | 1.14 | 0.745 | 0.9 | 0.773 | 0.875 | 0.857
NCI-H596 | 0.733 | 0.996 | 0.764 | 1 | 0.921 | 0.587 | 0.749 | 0.797 | 0.742 |  | 0.492 | 0.44 | 0.579 | 0.469 | 0.6 | 1 | 0.818 | 0.895 | 0.986
NCI-H441 |  | 0.547 | 0.461 | 0.543 | 0.465 | 0.829 | 0.992 | 0.687 | 0.918 |  | 0.232 | 0.255 | 0.259 | 0.263 |  | 0.453 | 0.393 | 0.323 | 0.35
LOU-NH91 |  | 0.848 | 0.741 | 0.719 | 0.664 | 0.796 | 0.819 | 0.807 | 0.504 |  | 0.34 | 0.403 | 0.409 | 0.409 |  | 0.457 | 0.524 | 0.456 | 0.497
IA-LM | 0.901 | 0.657 | 0.649 | 0.304 | 0.172 |  |  |  |  |  |  |  |  |  | 0.84 | 0.646 | 0.492 | 0.471 | 0.222
EBC-1 | 0.369 | 0.373 | 0.32 | 0.145 | 0.221 |  |  |  |  |  |  |  |  |  | 0.602 | 0.644 | 0.477 | 0.411 | 0.353
NCI-H727 |  | 0.608 | 0.543 | 0.545 | 0.825 | 0.618 | 0.607 | 0.568 | 0.499 |  |  |  |  |  |  | 0.848 | 0.882 | 0.795 | 0.873
NCI-H1395 |  | 1.18 | 1.09 | 1.01 | 0.902 | 0.465 | 0.445 | 0.454 | 0.46 |  | 0.813 | 0.907 | 0.749 | 0.806 |  |  |  |  | 
NCI-H522 |  |  |  |  |  | 0.584 | 0.691 | 0.611 | 0.672 |  | 1.08 | 0.833 | 1.07 | 0.989 |  |  |  |  | 
Calu-6 | 0.83 | 0.799 | 0.77 | 0.604 | 0.587 |  |  |  |  |  |  |  |  |  | 1.07 | 1.03 | 0.844 | 0.712 | 0.824
LCLC-103H |  |  |  |  |  | 0.344 | 0.344 | 0.316 | 0.325 | 0.473 | 0.455 | 0.532 | 0.42 | 0.4 | 1.06 | 1.14 | 0.995 | 1.09 | 1.01
NCI-H2342 |  |  |  |  |  | 0.594 | 0.686 | 0.58 | 0.719 | 0.751 | 0.779 | 0.747 | 0.765 | 0.858 |  |  |  |  | 
LK-2 | 1.09 | 0.985 | 0.662 | 0.938 | 0.936 | 0.38 | 0.478 | 0.354 | 0.387 | 0.249 | 0.239 |  | 0.253 | 0.301 |  |  |  |  | 
NCI-H1944 | 0.954 | 1.03 | 0.971 | 0.968 | 0.899 | 0.228 | 0.202 | 0.2 | 0.161 | 0.569 | 0.58 | 0.587 | 0.444 | 0.668 |  |  |  |  | 
ABC-1 |  |  |  |  |  | 0.214 | 0.201 | 0.229 | 0.228 |  |  |  |  |  |  | 0.292 | 0.265 | 0.31 | 0.288
NCI-H1703 | 1.33 | 1.41 | 1.6 | 0.951 | 1.09 |  |  |  |  |  |  |  |  |  | 0.422 | 0.496 | 0.409 | 0.28 | 0.43
NCI-H1793 | 0.463 | 0.599 | 0.306 | 0.445 | 0.669 | 0.284 | 0.331 | 0.415 | 0.358 |  | 1.08 |  | 0.911 | 1.17 |  |  |  |  | 
NCI-H2170 | 0.702 | 0.704 | 0.463 | 0.641 | 0.594 | 0.475 | 0.442 | 0.429 | 0.451 | 0.274 | 0.265 | 0.26 | 0.252 | 0.282 |  |  |  |  | 
NCI-H358 |  |  |  |  |  | 0.318 | 0.293 | 0.289 | 0.429 | 0.169 | 0.166 | 0.152 | 0.209 | 0.163 |  |  |  |  | 
NCI-H1623 |  |  |  |  |  | 0.583 | 0.469 | 0.917 | 0.535 |  |  |  |  |  |  |  |  |  | 
